Data on 5 compounds can be found in patent US20110076377A1, “ETHOID COMPOUNDS FOR USE AS FOOD ADDITIVES” (UNIVERSITY OF VIRGINIA PATENT FOUNDATION, priority 2007, published 2011).

Data set [1] in a line: Comparative stability of aspartame and aspartame ethoid in PBS solution (HPLC-MS). Format: physicochemical. To be noted: for half-life: 65° C., PBS pH 7.5; for Cyclized product (%) / SM (%): AUC at 214 nm; for degradation at the 12 hour time point: FIG. 1, PBS pH 7.5, 65° C. As to the method: Solutions of Aspartame and Compound 1 were prepared by dissolving 10 mg of the subject dipeptide in 4 ml of PBS, pH=7.5. […] Aliquots (50 μl) were withdrawn at the following times: 0, 24 h, 36 h, 48 h and 60 h, and diluted with 125 μl of methanol/acetonitrile/0.1% TFA.
The samples were analyzed by HPLC-MS, using a Gilson HPLC with dual wavelengths UV detector (214 and 254 nm). The following conditions were employed: column: C18; 4.6×250 mm; 5 μmx 6A; solvent system: H2O-1% TFA/Acetonitrile-1% TFA, 1 ml/min, with a gradient of 10% organic phase to 100% organic phase in 10 minutes, followed by a 10 minute hold at 100% of organic phase. As shown in the reaction schemes above, decomposition proceeds mainly via a cyclization reaction to form the corresponding cyclized product and methanol.
The AUC (at 214 nm) values corresponding to the dipeptide and corresponding cyclized products (aspartame→diketopiperazine and aspartame ethoid→ketooxazine) are summarized in the following Table.
See, e.g., FIG. 1, which provides plots of the logarithm of percent of intact dipeptide remaining over time, in hours, for both aspartame and the methyleneoxy ethoid of aspartame. […] The rate of degradation of the methyleneoxy ethoid of aspartame is time, temperature, and pH dependent.

The subject of a further data set is taste-test volunteers. In words: Blind taste test of sweetening potency of aqueous solutions. The format is in vivo. As to conditions: aqueous solutions at 1 mg/ml and 5 mg/ml, six volunteers. As to the method: The sweetening potency of Compounds 1 and 2 was established by conducting blind taste tests of aqueous solutions of each of Compound 1 and 2 compared to aqueous solutions of each of sucrose and aspartame at concentrations of both 1 mg/ml and 5 mg/ml. […] Furthermore, Compound 1, the ethoid version of aspartame, was reported to be approximately 5 to 10 times sweeter than aspartame by the taste-test volunteers.

The conditions of data set [2]: reported, background; cited from earlier work.
Data set [3] in a line: Solution stability of methyleneoxy ethoid of neotame relative to neotame. To be noted: FIG. 5B, 60° C., PBS pH 7.5, hydrolysis of methyl ester. Format: physicochemical. As to the method:
FIGS. 5A and 5B illustrate the temperature stability of an exemplary ethoid of neotame compared to neotame itself. […] FIG. 5B provides a comparison of the rate of degradation of the methyleneoxy ethoid of neotame versus neotame over time at 60° C. in a solution of phosphate buffered saline at pH 7.5. Specifically, FIG. 5B is a plot of the natural logarithm of the concentration of (neotame/neotame ethoid) over time. The decomposition reaction proceeds via hydrolysis of the methyl ester to the corresponding di-carboxylic acid.
The solution stability of Compound 3 at various temperatures was examined and compared to that of neotame.
The major route leading to loss of neotame is hydrolysis of the methyl ester group as shown above. […] The rates of degradation of neotame and the methyleneoxy ethoid of neotame were examined and compared. […] FIG. 5B is a plot comparing the rate of degradation of neotame to that of the corresponding ethoid.

Residues, ends and D or L forms follow the SMILES beside them.

A word on the half-life: it is the time in which the quantity being followed falls by half. Read a low half-life as rapid decline. `COC(=O)C(Cc1ccccc1)OCC(N)CC(=O)O` (centres unmarked) [Compound 1, asp-CH2—O-phe]: the “phenylalanine formation upon degradation” value in data set [1] is reported as “does not form phenylalanine”. In addition, the half-life in data set [1] was 305 h. For the same compound, the “Cyclized product (%)” value was 0% in data set [1] (PBS pH 7.5, 40° C., time 0 h); 0% in data set [1] (PBS pH 7.5, 40° C., time 24 h); 0% in data set [1] (PBS pH 7.5, 40° C., time 36 h); 0% in data set [1] (PBS pH 7.5, 40° C., time 48 h); 0% in data set [1] (PBS pH 7.5, 40° C., time 60 h). Also, the “SM (%)” value in data set [1] (PBS pH 7.5, 40° C., time 0 h) came out at 100%; in data set [1] (PBS pH 7.5, 40° C., time 24 h), 100%; in data set [1] (PBS pH 7.5, 40° C., time 36 h), 100%; in data set [1] (PBS pH 7.5, 40° C., time 48 h), 100%; in data set [1] (PBS pH 7.5, 40° C., time 60 h), 100%. For the same compound, the “diketopiperazine formation upon degradation” value in data set [1] (Example 4) is recorded as “no diketopiperazine (dkkp) formation”. Further, the “degradation at the 12 hour time point” value in data set [1] was “negligible”. In addition, the “degradation in solution at 40° C.” value in data set [1] (PBS pH 7.5, 40° C., up to 60 h) is “essentially no degradation was observed”. The “improvement of stability over aspartame” value in data set [1] (half lives at 65° C., ethoid versus aspartame) is recorded as “over a hundred-fold”. Further, the “sweetness compared to sucrose solution” value in the data set with taste-test volunteers is “significantly sweeter than sugar”. The “sweetness relative to aspartame” value with taste-test volunteers is recorded as “several-fold sweeter”.
In the case of `O=C1NS(=O)(=O)c2ccccc21` [saccharin], in data set [2], the “sweetness relative to sugar” value is reported as 300-450 times.
In the case of `COC(=O)C(Cc1ccccc1)OCC(CC(=O)O)NCCC(C)(C)C` (centres unmarked) [Compound 3], the “rate of degradation compared to neotame” value in data set [3] was “nearly identical”.
With `COC(=O)[C@H](Cc1ccccc1)NC(=O)[C@@H](N)CC(=O)O` [Aspartame, L-aspartyl-L-phenylalanine methyl ester, reference compound] (H-Asp-Phe-OMe), in data set [2], the “sweetness relative to an equivalent amount of sugar” value is 150 fold. The “sweetness relative to sugar” value in data set [2] is listed as “approximately 150 times”. Besides, in data set [1], the half-life was 2.5 h. For the same compound, the “Cyclized product (%)” value in data set [1] (PBS pH 7.5, 40° C., time 0 h) turned out to be 0%; in data set [1] (PBS pH 7.5, 40° C., time 24 h), 95%; in data set [1] (PBS pH 7.5, 40° C., time 36 h), 100%; in data set [1] (PBS pH 7.5, 40° C., time 48 h), 100%; in data set [1] (PBS pH 7.5, 40° C., time 60 h) it was 100%. Moreover, the “SM (%)” value in data set [1] (PBS pH 7.5, 40° C., time 0 h) came to 100%; in data set [1] (PBS pH 7.5, 40° C., time 24 h), 5%; in data set [1] (PBS pH 7.5, 40° C., time 36 h), 0%; in data set [1] (PBS pH 7.5, 40° C., time 48 h) it was 0%; in data set [1] (PBS pH 7.5, 40° C., time 60 h) it was 0%. Also, the “degradation at the 12 hour time point” value in data set [1] is on record as “essentially complete”.
In the case of `CC(=O)NC(COC(CCCCN)C(=O)O)Cc1ccccc1` (centres unmarked) [Compound 2, N—Ac-Phe-CH2—O-Lys], the “sweetness compared to sucrose solution” value with taste-test volunteers was “significantly sweeter than sugar”.
